Publication PMC7756582, “Prodrugs of γ‐Alkyl‐Modified Nucleoside Triphosphates: Improved Inhibition of HIV Reverse Transcriptase” (Angewandte Chemie (International Ed. in English), 2020)

Columns and labels:
[1] = tested on: HIV-1(IIIB); test: Anti-HIV activity assay, HIV-1-infected wild-type CEM/0 cell cultures; format: cell-based; conditions: Human immunodeficiency virus 1, IIIB, CCRF-CEM; wild-type CEM/0 cells, HIV-1; mean±SD, n=2-3; read-out: EC50 CEM/0 HIV-1
Method: (§1) γ‐(AB,alkyl)‐d4TTP prodrugs 6 and the γ‐alkyl‐d4TTPs 7 were evaluated for their ability to inhibit the replication of HIV in HIV‐1‐ or HIV‐2‐infected wild‐type CEM/0 as well as mutant thymidine‐kinase‐deficient CEM cell cultures (CEM/TK^−). For comparison, two TriPPPro derivatives 5 were also included in this assay.
(§2) Anti-HIV activity assay: Inhibition of HIV-1(IIIB)- and HIV-2(ROD)-induced cytopathicity in wild-type CEM/0 and thymidine kinase-deficient CEM/TK- cell cultures was measured in microtiter 96-well plates containing ~3·105 CEM cells/mL infected with 100 CCID50 of HIV per milliliter and containing appropriate dilutions of the test compounds. After 4−5 days of incubation at 37 °C in a CO2-controlled humidified atmosphere, CEM giant (syncytium) cell formation was examined microscopically. […]
(§3) was defined as the compound concentration required to inhibit HIV-induced giant cell formation by 50%. […]
(§4) The result was visualized by fluorescence imaging. […]
as §4

[2] = tested on: HIV-2(ROD); test: Anti-HIV activity assay, HIV-2-infected thymidine-kinase-deficient CEM/TK- cell cultures; format: cell-based; conditions: for EC50: read-out: EC50 CEM/TK− HIV-2; for antiviral activity in CEM/TK− cell cultures (in words): HIV-2-infected CEM/TK− cells
Method: as §1, §2, §3, §4, §4

[3] = Cytotoxicity: inhibition of CD4+ T-cell (CEM) proliferation; format: cell-based; conditions: human, CEM/0 cells (CD4+ T-cells), 50 % cytostatic concentration, mean±SD, n=2-3
[4] = tested on: HIV-2(ROD); test: Anti-HIV activity assay, HIV-2-infected wild-type CEM/0 cell cultures; format: cell-based; conditions: Human immunodeficiency virus 2, CCRF-CEM, read-out: EC50 CEM/0 HIV-2
Method: as §1, §2, §3, §4, §4

[5] = Chemical hydrolysis in aqueous phosphate buffer (PBS, pH 7.3); format: physicochemical; conditions: phosphate buffered saline (PBS); aqueous 25 mM phosphate buffer, pH 7.3, 37 °C; removal of AB group; n.h. = no hydrolysis observed through cleavage of AB-mask; read-out: PBS pH 7.3 t 1/2 (converted)
Method: γ‐(AB,alkyl)‐NTP prodrugs 6 and γ‐alkyl‐NTPs 7 were incubated in aqueous phosphate buffer (PBS, 25 mM, pH 7.3), or were exposed to pig liver esterase (PLE) in phosphate buffer (PBS) and to human CD4^+ T‐lymphocyte cell extracts to study their stability and the product distribution. The hydrolysis mixtures were analyzed by means of analytical rp‐18‐HPLC. The calculated half‐lives of prodrugs 6 (Table 1, t 1/2) reflect the removal of the bioreversible AB group to yield γ‐alkyl‐NTPs 7. Possible hydrolysis pathways and products are summarized in Scheme 4.
As hydrolysis products, a predominant formation of γ‐alkyl‐d4TTPs 7 and a very small amount of d4TDP […] was detected (approximately 3 %). After consumption of the starting material, no further increase of d4TDP concentration was observed. This supports the hypothesis that only the double‐γ‐esterified d4TTP prodrugs 6 were prone to a bond breakage between the γ‐ and β‐phosphate. […] In contrast to previous studies with TriPPPro‐NTPs 5 containing a second cleavable mask (first generation NTP prodrugs),[ ^23 , ^24 , ^25 ] no d4TTP was detected in these studies using 6 or 7. A side reaction occurred during the studies using compounds 7 that led to the formation of thymine by the cleavage of the glycosidic bond as reported before.[ ^19 , ^22 ]
(§5) ProLab 300 from Schott Co.. Thermomixer: Eppendorf Thermomixer 5436 and CellMedia Thermoschüttler basic were used. […]
Chemical hydrolysis of prodrugs of γ-(AB,alkyl) d4TTP 6 as well as the γ-alkyl-NTPs 7,15:
Stock solutions (50mM in DMSO-d6) of compounds 6,7 were prepared. After dilution of 11 µL stock solution with 100 µL milliQ water and 189 µL DMSO-d6 to 1.9mM hydrolysis solutions the reaction was started by addition of 300 µL phosphate buffer saline (PBS, 50mM, pH 7.3). The solution was incubated at 37 C in a thermomixer. An initial aliquot (25 µL) was taken directly and analyzed by analytical HPLC at 265-266 nm. Further aliquots were taken for monitoring the kinetic hydrolysis. The exponential decay curves (pseudo-first order) based on absolute integral values were calculated with commercially available software (OriginPro 9.0G) and yielded the half-lives t1/2 of the prodrugs via one determination. […]
The calculation of t1/2 was performed analogously to that for the chemical hydrolysis studies.
(§6) Preparation of cell extracts: Human CD4+ T-lymphocyte CEM cells were grown in RPMI-1640-based cell culture medium to a final density of ~3·10^6 cells/ml. Then, cells were centrifuged for 10 min at 1,250 rpm at 4 °C, washed twice with cold PBS, and the pellet was re-suspended at 10^8 cells/ml and sonicated (Hielscher Ultrasound Techn., 100% amplitude, 3·times for 10 sec) to destroy cell integrity. The resulting cell suspension was then centrifuged at 10,000 rpm to remove cell debris, and the supernatant divided in aliquots before being frozen at -80 C and used.
(1 picture or pasted object on this page, not shown here)

[6] = Enzyme-catalyzed hydrolysis in human CD4+ T-lymphocyte CEM cell extracts; format: in vitro ADME; conditions: for half-life at 0.86 mM: CEM/0 cell extracts (CD4+ T-lymphocytes), human CD4+ T-lymphocyte CEM cell extracts, 37 °C, read-out: CEM/0 cell extracts t 1/2 (converted)
Method: The stability of prodrugs 6 and the γ‐alkyl‐NTPs 7 was further investigated in human CD4 ^+ T‐lymphocyte CEM cell extracts. […] Thus, an enzymatic cleavage reaction took place. Half‐lives as low as 0.4 h (6 az) to 5.2 h (6 dz) were determined. […] This is in accordance to our previous results for the DiPPro‐[ ^17 , ^18 ] or the TriPPPro‐compounds 5.[ ^22 , ^23 ] In all cases we observed the predominant formation of γ‐alkyl‐d4TTPs 7 and d4TDP 2 d in very low concentration (Figure 2 B) but no NTP formation was detected, in contrast to the studies using the previously described TriPPPro compounds 5.[ ^23 , ^24 ] However, the difference to the compounds bearing long lipophilic acyl groups was not very pronounced (2‐ to 3‐fold). In the case of γ‐(AB‐C4,alkyl‐C18)‐d4TTP 6 cz, γ‐C18‐d4TTP 7 z was detected as the main product. After 8 h incubation, the ratio of γ‐C18‐d4TTP 7 z and d4TDP 2 d was 5:1. This was in sharp contrast to the studies performed with TriPPPro compounds 5.[ ^23 , ^24 ] There, it was almost impossible to detect significant concentrations of d4TTP due to its fast dephosphorylation to form first d4TDP and finally d4TMP 2 m. […] The formation of thymine or d4TTP 2 t from γ‐C18‐d4TTP 7 z was not detected (Supporting Information, Figure SI2).
as §5
Enzyme-catalyzed hydrolysis of γ-(AB,alkyl)-d4TTPs 6, γ-alkyl-d4TTPs 7,15 and TriPPPros 5 in CEM cell extracts:
18 µL of the appropriate 50 mM DMSO-d6 stock solution was diluted to 6.0 mM hydrolysis solution by addition of 132.0 µL DMSO-d6.
7-10 different samples including 10 µL water and 10 µL hydrolysis solution were prepared in 2 mL Eppendorf® vials. The reaction was started by addition of 50 µL human CEM cell extract and the mixture was incubated at 37 °C for different time periods. The reactions were stopped by addition of 150 μL MeOH. The solution was kept on ice for 5 min followed by centrifugation for 5 min (13000 rpm).
The supernatants were filtered (Chromafil® RC-20/15 MS, 0.2 μm) and stored in liquid nitrogen. When testing, the samples were defrosted and injection volume with 80 μL was used for HPLC analysis. The calculation of t1/2 was performed analogously to that for the chemical hydrolysis studies.
as §6

[7] = Human immunodeficiency virus 2, thymidine-kinase-deficient CEM/TK− cells, HIV-2, mean±SD, n=2-3
[8] = wild-type CEM/0 cells, HIV-2, mean±SD, n=2-3

Row | Compound | EC50 [1] [nM] | EC50 [2, 7] [nM] | CC50 [3] [µM] | EC50 [4, 8] [nM] | half-life at 0.92 mM [5] [days] | half-life at 0.86 mM [6] [min] | antiviral activity in CEM/TK− cell cultures (in words) [2] | stability in cell extracts (in words) ([6]; CEM cell extracts, incubation up to 30 h) | EC50 ([2]; Human immunodeficiency virus 2, CEM-TK(-)) [nM] | EC50 [4] [nM] | EC50 ([2]; thymidine-kinase-deficient CEM/TK− cells, HIV-2, mean±SD, n=2-3) [nM] | EC50 ([2]; thymidine-kinase-deficient CEM/TK− cells, HIV-2, mean±SD, n=2-3, listed as d4T 1) [nM]
1 | CCCCCCCCCCCCCCCOP(=O)(OCc1ccc(OC(=O)CCCCCC)cc1)OP(=O)(O)OP(=O)(O)OCC1C=CC(n2cc(C)c(=O)[nH]c2=O)O1 (stereo not drawn) [6 dy] | 180 ± 10 | 920 ± 120 | 18 ± 4 | 160 ± 110 | 8.83 | 216 | – | – | – | – | – | –
2 | CCCCCCCCC(=O)Oc1ccc(COP(=O)(OCc2ccc(OC(=O)CCCCCCCC)cc2)OP(=O)(O)OP(=O)(O)OCC2C=CC(n3cc(C)c(=O)[nH]c3=O)O2)cc1 (stereo not drawn) [5 a, reference compound] | 310 ± 10 | 2260 ± 1030 | 52 ± 1 | 620 ± 300 | 2.17 | 96 | active | – | – | – | – | –
3 | CCCCCCCCCCCCCCCCCCOP(=O)(OCc1ccc(OC(=O)CCCCCC)cc1)OP(=O)(O)OP(=O)(O)OCC1C=CC(n2cc(C)c(=O)[nH]c2=O)O1 (stereo not drawn) [6 dz] | 170 | 760 ± 110 | 27 ± 4 | 210 ± 60 | 11.2 | 312 | – | – | – | – | – | –
4 | Cc1cn([C@H]2C[C@H](O)[C@@H](COP(=O)(O)OP(=O)(O)OP(=O)(O)O)O2)c(=O)[nH]c1=O [TTP, reference compound] | – | – | – | – | – | – | – | rapidly enzymatically dephosphorylated | – | – | – | –
5 | CCCCCCCCCCCCCCCCCC(=O)Oc1ccc(COP(=O)(OCc2ccc(OC(=O)CCCC)cc2)OP(=O)(O)OP(=O)(O)OCC2C=CC(n3cc(C)c(=O)[nH]c3=O)O2)cc1 (stereo not drawn) [5 b, reference compound] | 120 ± 50 | 540 ± 410 | 33 ± 7 | 100 ± 30 | 2.08 | 198 | active | – | – | – | – | –
6 | CCCCCCCCCCCCCCCCCCOP(=O)(OCc1ccc(OC(C)=O)cc1)OP(=O)(O)OP(=O)(O)OCC1C=CC(n2cc(C)c(=O)[nH]c2=O)O1 (stereo not drawn) [6 az] | 220 ± 50 | 390 ± 300 | 17 ± 5 | 500 ± 140 | 8.17 | 24 | – | – | – | – | – | –
7 | CCCCCCCCCCCCCCCOP(=O)(OCc1ccc(OC(=O)CCCCCCCCCCCCCCC)cc1)OP(=O)(O)OP(=O)(O)OCC1C=CC(n2cc(C)c(=O)[nH]c2=O)O1 (stereo not drawn) [6 ey] | 620 ± 300 | 3900 ± 3400 | 48 ± 31 | 860 ± 40 | 10.4 | 150 | – | – | – | – | – | –
8 | CCCCCCCCCCCCCCCCCCOP(=O)(OCc1ccc(OC(=O)CC)cc1)OP(=O)(O)OP(=O)(O)OCC1C=CC(n2cc(C)c(=O)[nH]c2=O)O1 (stereo not drawn) [6 bz] | 190 ± 90 | – | 11 ± 4 | – | 8.58 | 96 | – | – | 350 ± 250 | 250 | – | –
9 | CCCCOP(=O)(OCc1ccc(OC(=O)CCCC)cc1)OP(=O)(O)OP(=O)(O)OCC1C=CC(n2cc(C)c(=O)[nH]c2=O)O1 (stereo not drawn) [6 cw] | 500 ± 210 | 9740 ± 3440 | 64 ± 11 | 670 ± 880 | 3.92 | 42 | marked loss of activity | – | – | – | – | –
10 | Cc1cn([C@H]2C=C[C@@H](CO)O2)c(=O)[nH]c1=O [Compound 1, 3′‐deoxy‐2′,3′‐didehydrothymidine, reference compound] | 430 ± 250 | – | > 50 | – | – | – | – | – | – | 220 ± 50 | > 50000 | 150000
11 | CCCCCCCCCCCCCCCOP(=O)(OCc1ccc(OC(=O)CCCC)cc1)OP(=O)(O)OP(=O)(O)OCC1C=CC(n2cc(C)c(=O)[nH]c2=O)O1 (stereo not drawn) [6 cy] | 250 | 390 ± 300 | 21 ± 7 | 230 ± 180 | 8.21 | 204 | – | – | – | – | – | –
